Test results published in patent US6631283B2 (priority 2000, dated 2003).

Test system: Vero cells
Type: cell-based

Substance: Chlorin e6 [free Ce6]
- cell-associated Ce6-specific fluorescence (delivery of Ce6 to cells): no detectable Ce6-specific fluorescence
